System: MV-4-11 cells
Assay: Gene expression microarray analysis (Affymetrix PrimeView) and GSEA
Assay type: cell-based, human
Details: gene FGFR1OP, FGFR1 oncogene partner; Azacitidine 1 mM; LIST F

Nc1ncn([C@@H]2O[C@H](CO)[C@@H](O)[C@H]2O)c(=O)n1 [azacitidine]
RFU, FGFR1OP (ProbeSet 11751329_s_at): 410.33 RFU

Source: article PMC5218480 (PLoS ONE, 2017)
